This passage reports T/C results from PubChem BioAssay AID248 (DTP/NCI, 2004).

Each structure is given as a SMILES string. Several values for one entry are separate records, joined by “and”; a condition that tells them apart may be missing. Equal entries are not always repeated. Inconclusive results and toxic doses are left out.

The subject of the experiment is L1210 leukemia ip in BDF1 mice, survival T/C. As to the kind of experiment: NCI In Vivo Anticancer Drug Screen. Data for tumor model L1210 Leukemia (intraperitoneal) in B6D2F1 (BDF1) mice. The settings on record: higher = longer survival. The method, boiled down:
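Antitumor effect is assessed in tumor-bearing animals. Survival in the compound arm is compared with a vehicle-dosed control arm and expressed as their quotient.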

The mark [1] stands for this setting: endpoint: mean survival time, dose: 100.0 mg/kg/injection, schedule: Q04DX002 (ip), vehicle: Klucel (hydroxypropylcellulose) (HPC).
Where [2] appears, read: endpoint: mean survival time, dose: 200.0 mg/kg/injection, schedule: Q04DX002 (ip), vehicle: Klucel (hydroxypropylcellulose) (HPC).
[3] abbreviates: endpoint: mean survival time, dose: 400.0 mg/kg/injection, schedule: Q04DX002 (ip), vehicle: Klucel (hydroxypropylcellulose) (HPC).

Consider `COC(=O)C[C@](O)(CCCC(C)(C)O)C(=O)O[C@@H]1C(OC)=C[C@]23CCCN2CCc2cc4c(cc2[C@H]13)OCO4`, for which the T/C (endpoint: mean survival time, dose: 0.06 mg/kg/injection, schedule: Q01DX009 (ip), vehicle: water) is 110 % of control; the T/C (endpoint: mean survival time, dose: 0.13 mg/kg/injection, schedule: Q01DX009 (ip), vehicle: water) is 111 % of control; the T/C (endpoint: mean survival time, dose: 0.25 mg/kg/injection, schedule: Q01DX009 (ip), vehicle: acid diluted with saline) is 113 % of control; the T/C (endpoint: mean survival time, dose: 0.25 mg/kg/injection, schedule: Q01DX009 (ip), vehicle: water) is 113 % of control and 123 % of control (2×); the T/C (endpoint: mean survival time, dose: 0.25 mg/kg/injection, schedule: Q03HX008 (ip), vehicle: acid diluted with saline) was 114 % of control; the T/C (endpoint: mean survival time, dose: 0.25 mg/kg/injection, schedule: Q03HX016 (ip), vehicle: acid diluted with saline) is 108 % of control. The T/C is 111 % of control (endpoint: mean survival time, dose: 0.5 mg/kg/injection, schedule: Q01DX006 (iv), vehicle: acid diluted with saline); 120 % of control (endpoint: mean survival time, dose: 0.5 mg/kg/injection, schedule: Q01DX009 (ip), vehicle: acid diluted with saline); 105 % of control (endpoint: mean survival time, dose: 0.5 mg/kg/injection, schedule: Q01DX009 (oral), vehicle: acid diluted with saline); 103 % of control (endpoint: mean survival time, dose: 0.5 mg/kg/injection, schedule: Q01DX009 (oral), vehicle: saline); 100 % of control (endpoint: mean survival time, dose: 0.5 mg/kg/injection, schedule: Q01DX009 (sc), vehicle: acid diluted with saline); 112 % of control (endpoint: mean survival time, dose: 0.5 mg/kg/injection, schedule: Q01DX009 (sc), vehicle: saline). In addition, the T/C is 120 % of control (endpoint: mean survival time, dose: 0.5 mg/kg/injection, schedule: Q03HX008 (ip), vehicle: acid diluted with saline); 117 % of control (endpoint: mean survival time, dose: 0.5 mg/kg/injection, schedule: Q03HX016 (ip), vehicle: acid diluted with saline); 116 % of control (endpoint: mean survival time, dose: 1.0 mg/kg/injection, schedule: Q01DX006 (iv), vehicle: acid diluted with saline); 107 % of control (endpoint: mean survival time, dose: 1.0 mg/kg/injection, schedule: Q01DX009 (oral), vehicle: acid diluted with saline); 108 % of control (endpoint: mean survival time, dose: 1.0 mg/kg/injection, schedule: Q01DX009 (oral), vehicle: saline); 117 % of control (endpoint: mean survival time, dose: 1.0 mg/kg/injection, schedule: Q01DX009 (sc), vehicle: acid diluted with saline). The T/C was 124 % of control (endpoint: mean survival time, dose: 1.0 mg/kg/injection, schedule: Q01DX009 (sc), vehicle: saline); 120 % of control (endpoint: mean survival time, dose: 1.0 mg/kg/injection, schedule: Q03HX008 (ip), vehicle: acid diluted with saline); 119 % of control (endpoint: mean survival time, dose: 1.0 mg/kg/injection, schedule: Q03HX016 (ip), vehicle: acid diluted with saline); 110 % of control (endpoint: mean survival time, dose: 1.0 mg/kg/injection, schedule: Q04DX003 (ip), vehicle: acid diluted with saline); 111 % of control (endpoint: mean survival time, dose: 2.0 mg/kg/injection, schedule: Q01DX001 (ip), vehicle: acid diluted with saline); 113 % of control (endpoint: mean survival time, dose: 2.0 mg/kg/injection, schedule: Q01DX001 (iv), vehicle: acid diluted with saline). The T/C (endpoint: mean survival time, dose: 2.0 mg/kg/injection, schedule: Q01DX001 (oral), vehicle: acid diluted with saline) was 105 % of control; the T/C (endpoint: mean survival time, dose: 2.0 mg/kg/injection, schedule: Q01DX001 (sc), vehicle: acid diluted with saline) is 109 % of control; the T/C (endpoint: mean survival time, dose: 2.0 mg/kg/injection, schedule: Q01DX006 (iv), vehicle: acid diluted with saline) is 116 % of control; the T/C (endpoint: mean survival time, dose: 2.0 mg/kg/injection, schedule: Q01DX009 (ip), vehicle: acid diluted with saline) is 150 % of control; the T/C (endpoint: mean survival time, dose: 2.0 mg/kg/injection, schedule: Q01DX009 (oral), vehicle: acid diluted with saline) is 117 % of control; the T/C (endpoint: mean survival time, dose: 2.0 mg/kg/injection, schedule: Q01DX009 (oral), vehicle: saline) is 120 % of control. Also, the T/C by setting is: (endpoint: mean survival time, dose: 2.0 mg/kg/injection, schedule: Q01DX009 (sc), vehicle: saline) 116 % of control; (endpoint: mean survival time, dose: 2.0 mg/kg/injection, schedule: Q08DX002 (ip), vehicle: acid diluted with saline) 107 % of control; (endpoint: mean survival time, dose: 4.0 mg/kg/injection, schedule: Q01DX001 (ip), vehicle: acid diluted with saline) 114 % of control; (endpoint: mean survival time, dose: 4.0 mg/kg/injection, schedule: Q01DX001 (iv), vehicle: acid diluted with saline) 109 % of control; (endpoint: mean survival time, dose: 4.0 mg/kg/injection, schedule: Q01DX001 (oral), vehicle: acid diluted with saline) 109 % of control; (endpoint: mean survival time, dose: 4.0 mg/kg/injection, schedule: Q01DX001 (sc), vehicle: acid diluted with saline) 109 % of control. For the same compound, the T/C is, setting by setting: (endpoint: mean survival time, dose: 4.0 mg/kg/injection, schedule: Q01DX006 (iv), vehicle: acid diluted with saline) 122 % of control; (endpoint: mean survival time, dose: 4.0 mg/kg/injection, schedule: Q01DX009 (ip), vehicle: acid diluted with saline) 86 % of control; (endpoint: mean survival time, dose: 4.0 mg/kg/injection, schedule: Q01DX009 (oral), vehicle: acid diluted with saline) 123 % of control; (endpoint: mean survival time, dose: 4.0 mg/kg/injection, schedule: Q01DX009 (sc), vehicle: acid diluted with saline) 111 % of control; (endpoint: mean survival time, dose: 4.0 mg/kg/injection, schedule: Q04DX003 (ip), vehicle: acid diluted with saline) 119 % of control; (endpoint: mean survival time, dose: 4.0 mg/kg/injection, schedule: Q08DX002 (ip), vehicle: acid diluted with saline) 109 % of control. For the same compound, the T/C was 114 % of control (endpoint: mean survival time, dose: 8.0 mg/kg/injection, schedule: Q01DX001 (iv), vehicle: acid diluted with saline); 102 % of control (endpoint: mean survival time, dose: 8.0 mg/kg/injection, schedule: Q04DX003 (ip), vehicle: acid diluted with saline); 119 % of control (endpoint: mean survival time, dose: 125.0 micrograms/kg/injection, schedule: Q03HX024 (ip), vehicle: acid diluted with saline); 89 % of control (endpoint: mean survival time, dose: 1000.0 micrograms/kg/injection, schedule: Q03HX024 (ip), vehicle: acid diluted with saline); 110 % of control (endpoint: median survival time, dose: 1.0 mg/kg/injection, schedule: Q04DX003 (ip), vehicle: saline); 113 % of control (endpoint: median survival time, dose: 2.0 mg/kg/injection, schedule: Q04DX003 (ip), vehicle: saline). Besides, the T/C (endpoint: median survival time, dose: 4.0 mg/kg/injection, schedule: Q04DX003 (ip), vehicle: saline) is 100 % of control.
For `O=S(=O)(c1ccccc1)C(Br)c1ccc(F)cc1` (configuration not stated), the T/C was 97 % of control under setting [1], 105 % of control under setting [2] and 101 % of control under setting [3].
Take `Cc1cccc(-c2nnc(-c3cccc(C)n3)o2)n1`: the T/C reads like this: (endpoint: mean survival time, dose: 50.0 mg/kg/injection, schedule: Q04DX002 (ip), vehicle: saline with Tween-80) 92 % of control; (endpoint: mean survival time, dose: 100.0 mg/kg/injection, schedule: Q04DX002 (ip), vehicle: saline with Tween-80) 95 % of control; (endpoint: mean survival time, dose: 200.0 mg/kg/injection, schedule: Q04DX002 (ip), vehicle: saline with Tween-80) 92 % of control; (endpoint: mean survival time, dose: 400.0 mg/kg/injection, schedule: Q04DX002 (ip), vehicle: saline with Tween-80) 87 % of control.
Regarding `Cc1ccc(NC(=O)Nc2cc(C)on2)c([N+](=O)[O-])c1`, the T/C (endpoint: mean survival time, dose: 25.0 mg/kg/injection, schedule: Q04DX003 (ip), vehicle: Klucel (hydroxypropylcellulose) (HPC)) was 96 % of control; the T/C (endpoint: mean survival time, dose: 50.0 mg/kg/injection, schedule: Q04DX003 (ip), vehicle: Klucel (hydroxypropylcellulose) (HPC)) is 96 % of control; the T/C (endpoint: mean survival time, dose: 100.0 mg/kg/injection, schedule: Q04DX003 (ip), vehicle: Klucel (hydroxypropylcellulose) (HPC)) was 100 % of control and 91 % of control.
For `O=C(Nc1cc(C(F)(F)F)ccc1Cl)N(Cc1ccccc1)c1ccccc1`, the T/C is, setting by setting: under setting [1], 93 % of control and 108 % of control; under setting [2], 98 % of control and 118 % of control; under setting [3], 98 % of control; (endpoint: mean survival time, dose: 800.0 mg/kg/injection, schedule: Q04DX002 (ip), vehicle: Klucel (hydroxypropylcellulose) (HPC)) 94 % of control.
`COc1ccc(CC[n+]2cccc(C(C)=O)c2)cc1OC`: the T/C runs as follows: (endpoint: mean survival time, dose: 75.0 mg/kg/injection, schedule: Q01DX001 (ip), vehicle: saline) 103 % of control; (endpoint: mean survival time, dose: 150.0 mg/kg/injection, schedule: Q01DX001 (ip), vehicle: saline) 106 % of control; (endpoint: mean survival time, dose: 300.0 mg/kg/injection, schedule: Q01DX001 (ip), vehicle: saline) 113 % of control.
As for `CC12CCC(C(N)C1=O)C2(C)C` (configuration not stated), the T/C (endpoint: mean survival time, dose: 100.0 mg/kg/injection, schedule: Q01DX009 (ip), vehicle: saline) was 103 % of control; the T/C (endpoint: mean survival time, dose: 100.0 mg/kg/injection, schedule: Q04DX003 (ip), vehicle: saline) is 98 % of control; the T/C (endpoint: mean survival time, dose: 200.0 mg/kg/injection, schedule: Q01DX009 (ip), vehicle: saline) is 105 % of control; the T/C (endpoint: mean survival time, dose: 200.0 mg/kg/injection, schedule: Q04DX003 (ip), vehicle: saline) is 98 % of control; the T/C (endpoint: mean survival time, dose: 400.0 mg/kg/injection, schedule: Q01DX009 (ip), vehicle: saline) was 94 % of control; the T/C (endpoint: mean survival time, dose: 400.0 mg/kg/injection, schedule: Q04DX003 (ip), vehicle: saline) was 97 % of control.
